From patent US5627198A, “Heterocyclic amides” (Hafslund Nycomed Pharma Aktiengesellschaft, priority 1994, dated 1997)

Experiments:
bladder strips = assay: Effects on the bladder muscle in vitro (relaxant effect on bladder strips); set-up: species or system guinea pigs; settings: Cavia porcellus; guinea pig bladder strips; contractions triggered by electrical stimulation or KCl depolarization; read-out: A IC50 (concentration which reduces contraction of bladder strips by 50%)
Protocol: Effects on the bladder muscle in vitro
In these experiments, the IC50 value denotes the concentration of a substance which reduces contraction by 50%.
Male albino guinea pigs weighing about 400 g are killed painlessly by a blow to the neck and quickly exsanguinated. The abdominal cavity is opened and the bladder is carefully resectioned. It is placed in a Petri dish filled with Krebs solution, and surrounding connective and fatty tissue is removed. Two horizontal strips of tissue are prepared. With the aid of two threads which are attached to both ends of the strips of tissue, the strips are suspended in an organ bath. They are fastened at the bottom to a hook and at the top to an electric force transducer which is able to measure precisely contractions of 0-10 g in strength. The measured contractions are amplified by means of a bridge amplifier and are recorded with a thermal plotter. The signals obtained can also be integrated electronically on another plotter channel in order to quantify in-phase contractions.
(§1) The organ baths are filled with Krebs solution at 37° C. through which an O2 /CO2 mixture is bubbled thoroughly and which has the following composition (mmol/1): NaCl 118.4; KCl 4.7; CaCl2 2.5; KH2 PO4 1.2; MgSO4 1.2; NaHCO3 25; glucose 11.
The strips are stretched with a basic tone of about 0.5 g. After an equilibration time of about 30 minutes, one of the two strips is stimulated electrically every minute using built-in electrodes (period of stimulation 2 seconds, 30 Hz, 0.5 ms pulse width, 10 volts) in order to trigger short-term contractions. The other strip is made to exert in-phase contraction by depolarization (addition of […] KCl to the organ bath). Both the contractions triggered by electrical stimulation and those initiated by depolarization and occurring in the strips of bladder muscle quickly reach a plateau. As soon as this plateau is reached ("100% value"), the test substance is added to the organ bath, initially at 10w concentrations, for example 10^-8 M, and then in increasing doses at regular intervals, until the contractions reduce or the final concentration of 10^-4 M is reached. Each test substance is tested 2-4 times in this way.
(§2) For purposes of evaluation, the height of the contractions registered on the plotter paper is measured for each experiment after the action of each test concentration added. The IC50 value can be calculated in this way in relation to the original height of contractions before the addition of substance (100%). All of the IC50 values are shown in column A of Table 1.

rings of aorta = assay: Effects on vessel muscle in vitro (aorta rings, KCl depolarization); set-up: species or system rats; settings: rat aorta rings contracted with 25 mM KCl; read-out: B IC50 (rings of aorta)
Protocol: Effects on vessel muscle in vitro
Male rats weighing about 300 g are killed painlessly by a blow to the neck and quickly exsanguinated. The thoracic cavity is opened and the aorta is carefully resectioned. It is placed in a Petri dish filled with Krebs solution, and surrounding connective and fatty tissue is removed. Two rings are prepared. The rings are each suspended in an organ bath. They are attached at the bottom to a hook and at the top to an electrical force transducer which is able to measure precisely contractions of 0-10 grams in strength. The measured contractions are amplified by means of a bridge amplifier and recorded with a thermal plotter.
as §1
The rings are stretched with a basic tone of about 0.5 g. After an equilibration time of about 30 minutes, the rings are caused to undergo contraction by depolarization (addition of 25 mM KCl to the organ bath). The contractions of the rings of aorta, triggered by the depolarization, quickly reach a plateau. As soon as this plateau is reached ("100% value"), the test substance is added to the organ bath, initially at low concentrations, for example 10^-8 M, and then in increasing doses at regular intervals, until the contractions reduce or the final concentration of 10^-4 M is reached. Each test substance is tested 2-4 times in this way.
as §2, with “(100%).” for “(100%). All of the”, “B” for “A”

[1] = tested on: arterial blood pressure, conscious rat; assay: Effects on blood pressure in vivo, conscious rat; set-up: species or system Sprague-Dawley rats
Protocol: Effects on blood pressure in vivo
The rats were fasted overnight before the day of the experiment.
On the day of experiment, the rats were brought into the laboratory and their blood pressure and heart rate was recorded over about 30 minutes. The test substances, suspended in 0.5% methylcellulose, were then administered perorally via a stomach tube (volume: 3 ml/kg of body weight) and blood pressure and heart rate were measured over the next 6 hours. The percentage changes in the measured values in relation to the initial values were calculated and were determined for groups of 3-4 similarly treated animals.

Row | SMILES | IC50 (bladder strips) [µM] | IC50 (rings of aorta) [nM] | Reduction in diastolic pressure, % of initial value ([1]; 6 mg/kg peroral, 30 min) | Reduction in diastolic pressure, % of initial value ([1]; 6 mg/kg peroral, 60 min) | Reduction in diastolic pressure, % of initial value ([1]; 6 mg/kg peroral, 120 min) | Reduction in diastolic pressure, % of initial value ([1]; 6 mg/kg peroral, 15 min) | Reduction in diastolic pressure, % of initial value ([1]; 18 mg/kg peroral, 15 min) | Reduction in diastolic pressure, % of initial value ([1]; 18 mg/kg peroral, 30 min) | Reduction in diastolic pressure, % of initial value ([1]; 18 mg/kg peroral, 60 min) | Reduction in diastolic pressure, % of initial value ([1]; 18 mg/kg peroral, 120 min) | Reduction in diastolic pressure, % of initial value ([1]; 1 mg/kg peroral, 15 min) | Reduction in diastolic pressure, % of initial value ([1]; 1 mg/kg peroral, 30 min) | Reduction in diastolic pressure, % of initial value ([1]; 1 mg/kg peroral, 60 min) | Reduction in diastolic pressure, % of initial value ([1]; 1 mg/kg peroral, 120 min)
1 | CC(O)(C(=O)Nc1ccc(C(=O)c2ccccc2)s1)C(F)(F)F (stereo not shown) [Example 1, N-[5-(Phenylcarbonyl)thien-2-yl]-3,3,3-tri-fluoro-2-hydroxy-2-methylpropanamide] | 100 | 2500 | 3 % of initial value | 2 % of initial value | 4 % of initial value |  |  |  |  |  |  |  |  | 
2 | CC(O)(C(=O)Nc1ncc(C(=O)c2ccccc2)s1)C(F)(F)F (stereo not shown) [Example 2, N-[5-(Phenylcarbonyl)thiazol-2-yl]-3,3,3-trifluoro-2-hydroxy-2-methylpropanamide] | 100 | 20000 | 8 % of initial value | 5 % of initial value |  | 2 % of initial value |  |  |  |  |  |  |  | 
3 | CC(O)(C(=O)Nc1nnc(C(=O)c2ccccc2)s1)C(F)(F)F (stereo not shown) [Example 3, N-[5-(Phenylcarbonyl)-1,3,4-thiadiazol-2-yl]-3,3,3-trifluoro-2-hydroxy-2-methylpropanamide] | 50 | 10000 | 3 % of initial value | 2 % of initial value | 4 % of initial value |  |  |  |  |  |  |  |  | 
4 | CC(O)(C(=O)Nc1ccc(S(=O)(=O)c2ccccc2)s1)C(F)(F)F (stereo not shown) [Example 4, N-[5-(Phenylsulfonyl)thien-2-yl]-3,3,3-trifluoro-2-hydroxy-2-methylpropanamide] | 1.7 | 1200 | 5 % of initial value | 4 % of initial value | 6 % of initial value | 1 % of initial value | 0 % of initial value | 8 % of initial value | 10 % of initial value | 15 % of initial value |  |  |  | 
5 | CC1(C)Oc2ccc(C#N)cc2C(N2CCCC2=O)C1O (stereo not shown) [V, cromakalim, reference compound] | 1 | 65 |  |  |  |  |  |  |  |  | 53 % of initial value | 49 % of initial value | 40 % of initial value | 26 % of initial value
